The values below come from patent US20200255489A1, “Novel Senolytic Peptides” (priority 2017, published 2020).

Where a SMILES comes first, the peptide text is derived from it. [ ]: non-standard residue; d: D form.

Data set [1] is described as follows: Acute Systemic Toxicity Test (ISO 10993-11). Format: in vivo, mice (BALB/c). The settings on record: BALB/c. Here is the method:
Senolytic Peptides were evaluated for toxicity according to Acute Sytemic Toxicity Test (ISO 10993-11). This study was performed in strict accordance with the protocol approved by the TUBITAK-MAM Animal Ethics Committee. All the mice used in this study were of a BALB/c background at 8-12 weeks of age. All mice were kept in group housing until the start of the experiment after which they were placed in separate cages (5 mice per cage). The Senolytic Peptide (SEQ ID NO: 11) is administered intravenously using a mice model (BALB/c) at doses of 1, 10, 50 and 100 mg/kg and vehicle alone is also administered using single injections (n=5, per group). Control and Senolytic Peptide (SEQ ID NO: 11) injected mice were sacrificed 24 hours later for pathological examination. […] Blood samples were subsequently collected for determination and analysis of hematological and biochemical parameters. Plasma alanine aminotransferase (ALT), aspartate aminotransferase (AST), alkaline phosphatase (ALP) activities and blood urea, glucose, triglyceride levels were determined, inter alia, full hematological parameters.

Data set [2] concerns senescent and non-senescent IMR90 cells. Nature of the data set: XTT viability assay on Doxorubicin induced senescent and non-senescent IMR90 fibroblasts. The class given is cell-based, human. The settings on record: senescence by 100 NM Doxorubicin, total doses 0 to 100 pM on 3 consecutive days, XTT after 7 days. The method, then:
IMR-90 cells (ATCC #CCL-186, a diploid primary human fibroblast adherent cell line derived from fetal lung tissue) were treated with 100 NM Doxorubicin twice every other day for senescence induction. […] Later these cells were used for experiments comparing them to their non-Doxorubicin (non-senescent) treated counterparts. Senescent and non-senescent IMR90 fibroblasts were plated for XTT viability assays. 7000 senescent (obtained as described above) and 2000 non-senescent IMR90 fibroblasts were plated in 96-well plates incubated. The cells were treated with mock (PBS) or the Senolytic Peptide(s) at total doses ranging from 0 to 100 pM. The mock and peptide treatments were carried out for 3 consecutive days (24, 48 and 72 hours) after plating. After treatment period, the cells were incubated for 7 days until XTT-based viability was analyzed according to the manufacturer's instructions. […]
(§1) WI-38 cells (ATCC #CCL-75, a diploid primary human fibroblast adherent cell line derived from fetal lung tissue) and IMR90 cells (ATCC #CCL-186, a diploid primary human fibroblast adherent cell line derived from fetal lung tissue) were treated with a chemotherapy agent, 100 NM Doxorubicin twice every other day to induce senescence. […] After treatment period, the cells were incubated for 7 days until XTT-based viability was analyzed according to the manufacturer's instructions. […]
(In general: Formazan colour is commonly taken as a measure of viable cells.)

Data set [3] relates to Doxorubicin induced renal senescence. Nature of the data set: Doxorubicin induced chemotoxicity / renal senescence in mice. Format: in vivo. The settings on record: male BALB/c mice, doxorubicin 8 mg/kg i.p. twice. Here is the method: This study was performed in strict accordance with the protocol approved by the TUBITAK-MAM Animal Ethics Committee. All the mice used in this study were of a BALB/c background at 8-12 weeks of age. All mice were kept in group housing until the start of the experiment after which they were placed in separate cages (4 mice per cage). Only male mice were used throughout the study. Where feasible, littermates were used. All mice were randomly assigned to experimental group. Mice were fed ad libidum. Initial weights of the mice were recorded. Mice were divided into three groups (A-No Treatment, B-Doxorubicin Treatment+Mock Treatment, C-Doxorubicin Treatment+Senolytic Peptide Treatment). Doxorubicin induced chemotoxicity was used for the induction of renal senescence in mice. Mice in Group B and C were intraperitoneally administered with doxorubicin (8 mg/kg) twice (at 0 and 10th day). Weights of the mice were recorded three times a week. 24 days after 2nd Doxorubicin treatment, PBS (mock Treatment) was administered intravenously to Group B and Senolytic Peptide (SEQ ID NO: 12) (3×10 mg/kg) was administered to Group C in three days (every other day) (FIG. 17A). The mice health, activity and appearance were monitored and they were sacrificed 14 days later. Gross pathology and pathology of the mice analysed. Mice organs and tissues are flash-frozen in liquid nitrogen and embedded in OCT and kept at −80 C. 10 micron thick mid-sagittal cryo-sections of the kidney were taken and SA-B-Gal activity was assayed as in Example 1-3. Doxorubicin induced alopecia and caused weight loss in mice and both conditions are reversed upon the Senolytic Peptide (SEQ ID NO: 12) Treatment (FIG. 17B).

The test system of data set [4] is senescent and non-senescent WI-38 cells. Nature of the data set: XTT viability assay on Doxorubicin induced senescent and non-senescent WI-38 fibroblasts. Format: cell-based, human. The settings on record: senescence by 100 NM Doxorubicin, total doses 0 to 100 pM on 3 consecutive days, XTT after 7 days. Here is the method:
WI-38 cells (ATCC #CCL-75, a diploid primary human fibroblast adherent cell line derived from fetal lung tissue) were treated with a chemotherapy agent, 100 NM Doxorubicin twice every other day to induce senescence. […] Later these cells were used for experiments comparing them to their non-Doxorubicin (non-senescent) treated counterparts. Senescent and non-senescent WI-38 fibroblasts were plated for XTT viability assays. 7000 senescent (obtained as described above) and 2000 non-senescent WI-38 fibroblasts were plated in 96-well plates incubated. The cells were treated with mock (PBS) or the Senolytic Peptide (SEQ ID NO: 11) at total doses ranging from 0 to 100 pM. The mock and peptide treatments were carried out for 3 consecutive days (24, 48 and 72 hours) after plating. After treatment period, the cells were incubated for 7 days until XTT-based viability was analyzed according to the manufacturer's instructions. […]
as §1

The mark [5] stands for this setting: peptide 3x10 mg/kg every other day.

As to `CC(C)C[C@H](NC(=O)[C@@H](NC(=O)[C@H](CC(C)C)NC(=O)[C@H](CCCNC(=N)N)NC(=O)[C@H](CCCCN)NC(=O)[C@H](CCCNC(=N)N)NC(=O)[C@@H]1CCCN1C(=O)[C@H](C)NC(=O)[C@H](CCCNC(=N)N)NC(=O)[C@H](CCCNC(=N)N)NC(=O)[C@H](CCCNC(=N)N)NC(=O)[C@H](CCCNC(=N)N)NC(=O)[C@H](CCCNC(=N)N)NC(=O)[C@H](CCCNC(=N)N)NC(=O)[C@H](CCCNC(=N)N)NC(=O)[C@H](CCCNC(=N)N)NC(=O)[C@H](CCCNC(=N)N)NC(=O)[C@H](CCCNC(=N)N)NC(=O)[C@H](CCCNC(=N)N)NC(=O)[C@H](CCCNC(=N)N)NC(=O)[C@H](CCCNC(=N)N)NC(=O)[C@H](CCCNC(=N)N)NC(=O)CNC(=O)[C@H](Cc1c[nH]c2ccccc12)NC(=O)[C@H](C)NC(=O)[C@H](CCCNC(=N)N)NC(=O)[C@H](CCCNC(=N)N)NC(=O)[C@H](CCCNC(=N)N)NC(=O)[C@H](CCCNC(=N)N)NC(=O)CNC(=O)CNC(=O)[C@H](CCCCN)NC(=O)[C@H](CCCNC(=N)N)NC(=O)[C@@H]1CCCN1C(=O)[C@H](N)CCCNC(=N)N)[C@@H](C)O)C(=O)O` [SEQ ID NO: 11, dRPRKGGRRRR AWGRRRRRRR RRRRRRRAPR KRLTL] (H-[dR]PRKGGRRRRAWGRRRRRRRRRRRRRRAPRKRLTL-OH), the “toxicity to the physical appearance of the mice” value in data set [1] (single intravenous injection 1, 10, 50 and 100 mg/kg, within 24 hours of injection) is “No toxicity”. The “toxicity by hematological parameters, AST, ALT, ALP levels and gross pathology” value in data set [1] (single intravenous injection, even at 100 mg/kg, 24 hours) was “no toxicity”.

With “PRKGGSRRRAWGNQRYARLIRQAIESAPEKRLTLA (PRKGGSRRRAWGNQRYARLIRQAIESAPEKRLTLA; Based on Homo sapiens sequence) [SEQ ID NO: 12]”, the “effect on viability of senescent versus non-senescent cells (XTT)” value in data set [2] and in data set [4] was “selectively decreased the viability” throughout. The Doxorubicin induced alopecia entry in data set [3] (setting [5]) was “reversed”. For the same compound, the “Doxorubicin induced weight loss” value in data set [3] (setting [5]) was “reversed”. In data set [3] (peptide 3x10 mg/kg, sacrificed 14 days later), the “senescent cells in kidneys (SA-B-Gal activity of kidney sections)” value is “cleared senescent cells in kidneys”.
